Measured values as given in PMC8936055 (Journal of natural products, 2022).
Like-named read-outs stand apart in the source and are kept apart here.

Experiments:
SARS-CoV-2 [1] = conditions: air-liquid interface culture, test concentration 10 μM, 48 h
SARS-CoV-2 [2] = format: cell-based; conditions: Calu-3 cells; for Suppression of viral infection relative to DMSO control, initial screen: 0.5 μM for 1, 1 μM for the others, 48 h, Figure 3; for Suppression of viral infection, follow-up experiment: Figure 4
[3] = tested on: influenza A virus subtype H1N1; conditions: cited from earlier work
SARS-CoV-2 [4] = conditions: cited from earlier work
Plasmodium falciparum = conditions: human malarial parasite Plasmodium falciparum; cited from earlier work
HIV-1 strain 96USHIPS7 = conditions: read-out: IC50 against HIV-1 strain 96USHIPS7; cited from earlier work
HIV-1 strain UG/92/029 = conditions: read-out: IC50 against HIV-1 strain UG/92/029; cited from earlier work
[5] = cited from earlier work
[6] = tested on: primary human airway cells; conditions: air-liquid interface, 48 h, Figure 5B

With C[C@H]1CC[C@H]2C(C)(C)CCC[C@]23Oc2ccc(O)cc2C[C@]13C [Compound 2, (+)-aureol] the “Effect on SARS-CoV-2 replication in primary human airway cells” value (SARS-CoV-2 [1]) was “ineffective”, the “Suppression of viral infection relative to DMSO control, initial screen” value (SARS-CoV-2 [2]) was “significantly suppressed viral infection” and the “Suppression of viral infection, follow-up experiment” value (“Suppression … follow-up experiment” below) (SARS-CoV-2 [2]; 10 μM) was “significant suppression of viral infection”.
In the case of CC(C)=CCC[C@@H](C)[C@H]1CC[C@@]2(C(=O)O)C3=C(CC[C@]12C)[C@@]1(C)CC[C@H](O[C@@H]2OC[C@H](O)[C@H](O[C@@H]4OC[C@H](O)[C@H](O[C@@H]5O[C@H](CO)[C@H](O)[C@H](O)[C@H]5O)[C@H]4O)[C@H]2O[C@@H]2O[C@H](CO)[C@H](O)[C@H](O)[C@H]2O)C(C)(C)C1CC3 (stereo partly shown) [Compound 13, formoside], the “Reduction of SARS-CoV-2 infection in a subsequent experiment” value (SARS-CoV-2 [2]; data not shown) is reported as “not replicated”.
For C[C@H]1CC[C@H]2C(C)(C)[C@@H](O)CC[C@]23Oc2c(c(O)cc4c2CNC4=O)C[C@]13C [Compound 16, stachyflin], the “Activity against influenza A virus subtype H1N1” value [3] is given as “nanomolar activity”.
In the case of plitidepsin [Compound 4], the “Potency against SARS-CoV-2 relative to remdesivir” value (SARS-CoV-2 [4]) is given as “more than 20 times”.
For CC1=C2Cc3cc(ccc3O)C(=O)O[C@H](C(C)(C)Br)CC[C@](C)(O)[C@H](Br)CC[C@]2(C)[C@@H](Br)CC1 [Compound 3, bromophycolide A], the “Effect on SARS-CoV-2 replication in primary human airway cells” value (SARS-CoV-2 [1]) is given as “ineffective”, the “Blood stage antimalarial activity” value (Plasmodium falciparum) is given as “sub-micromolar” and the IC50 (HIV-1 strain 96USHIPS7) is given as 9.8 µM. The IC50 (HIV-1 strain UG/92/029) was 9.1 µM, the “Suppression of viral infection relative to DMSO control, initial screen” value (SARS-CoV-2 [2]) was “significantly suppressed viral infection” and the “Suppression … follow-up experiment” value (SARS-CoV-2 [2]; 10 μM) was “significant suppression of viral infection”. The Toxicity in vivo ([5]; malaria mouse model) was “low toxicity”, the Bioavailability in vivo ([5]; mouse, in vivo) was “reasonable bioavailability” and the In vivo half-life ([5]; mouse, in vivo) was “short in vivo half-life”. The Liver metabolism ([5]; mouse, in vivo) was “rapid liver metabolism”.
In the case of CC(=O)C[C@]1(O)c2ccccc2-[n+]2ccc3c([nH]c4ccccc43)c21.O=C([O-])C(F)(F)F [Compound 1, homofascaplysin A], the “Effect on adenoviral transduction (toxicity control)” value [6] is reported as “did not affect adenoviral transduction”, the “Suppression of viral infection relative to DMSO control, initial screen” value (SARS-CoV-2 [2]) is reported as “significantly suppressed viral infection” and the “Suppression … follow-up experiment” value (SARS-CoV-2 [2]; 2.8 μM) is reported as “significant suppression of viral infection”.
